Data: the NIST ThermoML archive (doi:10.1021/acs.jced.6b00695)
± gives the expanded uncertainty stated by the source. Each block holds one molecule with its values, some of them ahead of it.

Test: mn = molality of the nth substance listed, in mol/kg
Settings: for surface tension liquid-gas: Capillary rise; for viscosity / speed of sound / mass density: 100 kPa, Liquid; for viscosity: Capillary tube (Ostwald / Ubbelohde) method; for speed of sound: Sing-around technique in a fixed-path interferometer; for mass density: Vibrating tube method

- surface tension liquid-gas (298.15 K, m1 = 1.27): 42.79 ± 0.7 mN/m
- viscosity (298.15 K, m1 = 1.27): 2.727 ± 0.018 mPa·s
- speed of sound (298.15 K, m1 = 1.27): 1607.8 ± 1.1 m/s
- mass density (298.15 K, m1 = 1.27): 1127.29 ± 0.25 kg/m3
- surface tension liquid-gas (303.15 K, m1 = 1.27): 42.13 ± 0.7 mN/m
- viscosity (303.15 K, m1 = 1.27): 2.386 ± 0.016 mPa·s
- speed of sound (303.15 K, m1 = 1.27): 1615.4 ± 1.1 m/s
- mass density (303.15 K, m1 = 1.27): 1125.29 ± 0.25 kg/m3
- surface tension liquid-gas (308.15 K, m1 = 1.27): 40.87 ± 0.7 mN/m
- viscosity (308.15 K, m1 = 1.27): 2.085 ± 0.014 mPa·s
- speed of sound (308.15 K, m1 = 1.27): 1621.8 ± 1.1 m/s
- mass density (308.15 K, m1 = 1.27): 1123.11 ± 0.25 kg/m3
Compound: OC[C@H]1O[C@@](CO)(O[C@H]2O[C@H](CO)[C@@H](O)[C@H](O)[C@H]2O)[C@@H](O)[C@@H]1O [D-sucrose] + O

- surface tension liquid-gas (298.15 K, m1 = 0.005): 71.6 ± 0.69 mN/m
- viscosity (298.15 K, m1 = 0.005): 0.9011 ± 0.0069 mPa·s
- speed of sound (298.15 K, m1 = 0.005): 1494.6 ± 0.86 m/s
- mass density (298.15 K, m1 = 0.005): 997.455 ± 0.05 kg/m3
- surface tension liquid-gas (303.15 K, m1 = 0.005): 70.84 ± 0.69 mN/m
- viscosity (303.15 K, m1 = 0.005): 0.8009 ± 0.0066 mPa·s
- speed of sound (303.15 K, m1 = 0.005): 1504.7 ± 0.86 m/s
- mass density (303.15 K, m1 = 0.005): 996.059 ± 0.045 kg/m3
- surface tension liquid-gas (308.15 K, m1 = 0.005): 70.06 ± 0.69 mN/m
- viscosity (308.15 K, m1 = 0.005): 0.7225 ± 0.0063 mPa·s
- speed of sound (308.15 K, m1 = 0.005): 1516.2 ± 0.87 m/s
- mass density (308.15 K, m1 = 0.005): 994.427 ± 0.051 kg/m3
Compound: O=C(O)CC(O)(CC(=O)O)C(=O)O [citric acid] + O

- mass density (298.15 K, m1 = 0.005): 998.006 ± 0.05 kg/m3
Compound: [Cl][Dy]([Cl])[Cl] [dysprosium(III) chloride] + O

- mass density (298.15 K, m1 = 0.005): 998.051 ± 0.05 kg/m3
Compound: [Cl][Er]([Cl])[Cl] [erbium trichloride] + O

- mass density (298.15 K, m1 = 0.005): 998.121 ± 0.05 kg/m3
Compound: [Cl][Yb]([Cl])[Cl] [ytterbium trichloride] + O
